The results in this text go back to ChEMBL document CHEMBL1128555, “Derivatives of 5-[[1-(4'-carboxybenzyl)imidazolyl]methylidene]hydantoins as orally active angiotensin II receptor antagonists” (J Med Chem, 1995).

Experiment [1] addresses T1, Angiotensin II receptor (AT-1) type-1 (Rattus norvegicus, UniProt P29089+P25095).
T1 sequence (P29089 whole entry): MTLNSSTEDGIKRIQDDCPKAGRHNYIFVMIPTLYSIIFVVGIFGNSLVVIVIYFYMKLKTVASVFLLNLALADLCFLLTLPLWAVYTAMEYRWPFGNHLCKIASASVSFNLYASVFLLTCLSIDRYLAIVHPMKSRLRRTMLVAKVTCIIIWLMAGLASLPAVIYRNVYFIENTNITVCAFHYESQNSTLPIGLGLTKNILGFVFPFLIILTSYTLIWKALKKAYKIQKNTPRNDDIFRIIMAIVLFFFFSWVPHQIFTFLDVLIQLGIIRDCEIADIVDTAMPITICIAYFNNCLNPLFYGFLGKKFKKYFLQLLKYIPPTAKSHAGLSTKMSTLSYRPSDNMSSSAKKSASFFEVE
T1 sequence (P25095 whole entry): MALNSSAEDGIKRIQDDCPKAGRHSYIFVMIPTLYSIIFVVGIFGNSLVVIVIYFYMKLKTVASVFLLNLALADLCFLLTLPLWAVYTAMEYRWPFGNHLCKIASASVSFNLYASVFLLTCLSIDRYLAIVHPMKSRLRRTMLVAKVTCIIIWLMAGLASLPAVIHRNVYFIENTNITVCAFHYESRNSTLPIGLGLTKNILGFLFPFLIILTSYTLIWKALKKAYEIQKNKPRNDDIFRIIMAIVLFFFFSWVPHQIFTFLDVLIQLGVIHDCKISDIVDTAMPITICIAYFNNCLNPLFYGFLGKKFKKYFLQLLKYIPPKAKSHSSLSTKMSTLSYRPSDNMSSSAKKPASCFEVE
The experiment in a line: Binding affinity expressed as IC50 to the Angiotensin II receptor, type 1, from rat liver membrane.

Experiment [2] concerns the target Angiotensin II receptor (AT-1) type-1 (Rattus norvegicus) (UniProt P29089+P25095). The experiment in a line: Antihypertensive activity in renal hypertensive rats (RHR) at 30 mg/Kg dose after oral administration. The experiment is classed as functional, organism-based.
The target of experiment [3] is Angiotensin II receptor type-1 (Oryctolagus cuniculus) (UniProt P34976). The experiment in a line: Inhibition of angiotensin II induced contraction in rabbit aortic ring, activity is expressed as IC50.
Sequence of Angiotensin II receptor type-1 (Oryctolagus cuniculus) (P34976 whole entry, looked up): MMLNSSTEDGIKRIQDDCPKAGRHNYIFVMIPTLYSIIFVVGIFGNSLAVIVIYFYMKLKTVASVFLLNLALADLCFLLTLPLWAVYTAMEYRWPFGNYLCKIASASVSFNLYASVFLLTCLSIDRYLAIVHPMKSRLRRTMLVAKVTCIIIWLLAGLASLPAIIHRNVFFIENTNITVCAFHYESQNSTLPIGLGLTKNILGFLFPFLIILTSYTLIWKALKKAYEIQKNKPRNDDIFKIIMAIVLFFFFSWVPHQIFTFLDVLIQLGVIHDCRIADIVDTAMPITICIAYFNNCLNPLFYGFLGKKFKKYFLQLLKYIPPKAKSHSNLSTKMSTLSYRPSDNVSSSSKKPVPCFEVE

Some results are limits rather than exact numbers.

Turning to `CCCCc1ncc(/C=C2\C(=O)N(CCCC)C(=O)N2CCCC)n1Cc1ccc(C(=O)O)cc1`, the IC50 (as a rule, the concentration needed to halve the response being measured) in experiment [1] is on record as 0.5 nM.
Regarding `CCCCc1ncc(/C=C2/C(=O)N(CCCC)C(=O)N2Cc2cc(C)cs2)n1Cc1ccc(C(=O)O)cc1`, the IC50 was determined as 1.5 nM in experiment [1] and 21 nM in experiment [3]. The Maximum blood pressure change in experiment [2] is -16%.
With `CCCCc1ncc(/C=C2/C(=O)NC(=O)N2CCC(C)C)n1Cc1ccc(C(=O)O)cc1`, the values for the IC50 in experiment [1] and in experiment [3] were 6.6 nM and 32 nM, respectively.
On to `CCCCc1ncc(/C=C2/C(=O)N(CCCC)C(=O)N2Cc2csc(C)n2)n1Cc1ccc(C(=O)O)cc1`, for which the IC50 is 1.2 nM in experiment [1] and 2.6 nM in experiment [3]. Moreover, in experiment [2], the Maximum blood pressure change is -34%.
In experiment [1], `CCCCc1ncc(/C=C2/C(=O)N(CCCC)C(=O)N2C(c2ccccc2)c2ccccc2)n1Cc1ccc(C(=O)OC)cc1` gave an IC50 of 884 nM.
In experiment [1], `CCCCc1ncc(/C=C2/C(=O)N(CCCC)C(=O)N2Cc2ccc(C(F)(F)F)cc2)n1Cc1ccc(C(=O)OC)cc1` returned an IC50 of 159 nM.
Same read-out and setting: under `CCCCc1ncc(/C=C2/C(=O)N(CCCC)C(=O)N2Cc2c[nH]cn2)n1Cc1ccc(C(=O)OC)cc1` stands 54.5 nM; under `CCCCc1ncc(/C=C2/C(=O)N(CCCC)C(=O)N2Cc2ccc(Br)s2)n1Cc1ccc(C(=O)OC)cc1`, 17.8 nM.
Same read-out and setting: under `CCCCc1ncc(/C=C2/C(=O)N(CCCC)C(=O)N2Cc2nn[nH]n2)n1Cc1ccc(C(=O)OC)cc1` stands 41.7 nM; under `CCCCc1ncc(/C=C2/C(=O)N(CCCC)C(=O)N2Cc2c[nH]c(C)n2)n1Cc1ccc(C(=O)OC)cc1`, 245 nM; under `CCCCc1ncc(/C=C2\C(=O)NC(=O)N2CCCC)n1Cc1ccc(-c2nn[nH]n2)cc1`, 2.5 nM.
On the same count and under the same terms, under `CCCCc1ncc(/C=C2/C(=O)N(CCCC)C(=O)N2Cc2csc(C)n2)n1Cc1ccc(C2(C(=O)OC)CCCC2)cc1` stands 8 nM; under `CCCCc1ncc(/C=C2/C(=O)N(CO)C(=O)N2Cc2csc(C)n2)n1Cc1ccc(C(=O)OC)cc1`, 35.7 nM.
For `CCCCc1ncc(/C=C2/C(=O)N(CCCC)C(=O)N2CCc2ccsc2)n1Cc1ccc(C(=O)OC)cc1`, in experiment [1], the concentration for half-maximal inhibition (IC50) is 14.6 nM.
Still for that read-out and setting: under `CCCCc1ncc(/C=C2\C(=O)NC(=O)N2CCCC)n1Cc1ccc(-c2ccccc2C(=O)OC)cc1` stands 9.9 nM; under `CCCCc1ncc(/C=C2/C(=O)N(CCCC)C(=O)N2Cc2ccccc2)n1Cc1ccc(C(=O)OC)cc1`, 12.4 nM; under `CCCCc1ncc(/C=C2\C(=O)N(CCCC)C(=O)N2Cc2csc(C)n2)n1Cc1ccc(C(=O)O)cc1`, 1.7 nM.
For the compound `CCCCc1ncc(/C=C2/C(=O)N(CCCC)C(=O)N2Cc2ccc(C(=O)OC)cc2)n1Cc1ccc(C(=O)OC)cc1`, in experiment [1], the IC50 is 14.3 nM.
On the same count and under the same terms, under `CCCCc1ncc(/C=C2/C(=O)N(CCCC)C(=O)N2Cc2cc(Br)cs2)n1Cc1ccc(C(=O)OC)cc1` stands 21.9 nM; under `CCCCc1ncc(/C=C2/C(=O)N(CCCC)C(=O)N2Cc2csc(Br)c2)n1Cc1ccc(C(=O)OC)cc1`, 25.4 nM.
Still for that read-out and setting: under `CCCCc1ncc(/C=C2/C(=O)N(CCCC)C(=O)N2Cc2cccc(Cl)c2)n1Cc1ccc(C(=O)OC)cc1` stands 117 nM.
`CCCCc1ncc(/C=C2\C(=O)NC(=O)N2Cc2ccccc2)n1Cc1ccc(C(=O)O)cc1`: the IC50 was 3.4 nM in experiment [1] and more than 100 nM in experiment [3].
As for `CCCCCCN1C(=O)N(CCCC)C(=O)/C1=C/c1cnc(CCCC)n1Cc1ccc(C(=O)OC)cc1`, the IC50 in experiment [1] is 40.2 nM.
With `CCCCc1ncc(/C=C2\C(=O)NC(=O)N2CCC(C)C)n1Cc1ccc(C(=O)O)cc1`, the IC50 in experiment [1] is reported as 4.9 nM; in experiment [3], 74 nM.
Consider `CCCCc1ncc(/C=C2/C(=O)N(CCSC)C(=O)N2Cc2csc(C)n2)n1Cc1ccc(C(=O)OC)cc1`, for which, in experiment [1], the IC50 worked out at 9.6 nM.
On the same count and under the same terms, under `CCCCc1ncc(/C=C2/C(=O)N(CC)C(=O)N2Cc2csc(C)n2)n1Cc1ccc(C(=O)OC)cc1` stands 11.1 nM; under `CCCCc1ncc(/C=C2/C(=O)N(CCCO)C(=O)N2Cc2csc(C)n2)n1Cc1ccc(C(=O)OC)cc1`, 47.9 nM.
In the case of `CCCCc1ncc(/C=C2/C(=O)N(CCC)C(=O)N2Cc2csc(C)n2)n1Cc1ccc(C(=O)OC)cc1`, the IC50 in experiment [1] stood at 9 nM.
Turning to `CCCCc1ncc(/C=C2/C(=O)N(CCCC)C(=O)N2Cc2csc(C)n2)n1Cc1ccc(C2(C(=O)O)CCCC2)cc1`, the IC50 in experiment [1] was 1.9 nM. In addition, the Maximum blood pressure change in experiment [2] is -16%.
Take `CCCCc1ncc(/C=C2/C(=O)N(CCCC)C(=O)N2Cc2cc(C)on2)n1Cc1ccc(C(=O)OC)cc1`: the 50% inhibitory concentration (IC50) in experiment [1] came to 8.5 nM.
The same measure, in the same setting: as for `CCCCc1ncc(/C=C2/C(=O)N(CCCC)C(=O)N2Cc2ccc(C)cc2)n1Cc1ccc(C(=O)OC)cc1`, the figure is 34.6 nM.
Still for that read-out and setting: as for `CCCCc1ncc(/C=C2\C(=O)N(CCCC)C(=O)N2Cc2csc(N)n2)n1Cc1ccc(C(=O)O)cc1`, the figure is 0.5 nM.
Same read-out and setting: under `CCCCc1ncc(/C=C2/C(=O)N(CCCC)C(=O)N2CCc2ccccc2)n1Cc1ccc(C(=O)OC)cc1` stands 31 nM.
In the case of `CCCCc1ncc(/C=C2\C(=O)N(CCCC)C(=O)N2Cc2cccs2)n1Cc1ccc(C(=O)O)cc1`, the IC50 in experiment [1] is 0.6 nM.
As for `CCCCc1ncc(/C=C2/C(=O)N(CCCC)C(=O)N2Cc2c(C)noc2C)n1Cc1ccc(C(=O)OC)cc1`, in experiment [1], the 50% inhibitory concentration (IC50) stood at 198 nM.
Still for that read-out and setting: as for `CCCCc1ncc(/C=C2/C(=O)N(CCCC)C(=O)N2Cc2ccc(O)c(O)c2)n1Cc1ccc(C(=O)OC)cc1`, the figure is 4.9 nM.
Turning to `CCCCc1ncc(/C=C2/C(=O)N(COC)C(=O)N2Cc2csc(C)n2)n1Cc1ccc(C(=O)OC)cc1`, the IC50 in experiment [1] amounted to 47.8 nM.
On the same count and under the same terms, under `CCCCc1ncc(/C=C2/C(=O)N(CCCC)C(=O)N2CC2CCCCC2)n1Cc1ccc(C(=O)OC)cc1` stands 3.3 nM; under `CCCCc1ncc(/C=C2/C(=O)N(CCCC)C(=O)N2C=C(C)C)n1Cc1ccc(C(=O)OC)cc1`, 11.1 nM.
Still for that read-out and setting: as for `CCCCc1ncc(/C=C2/C(=O)N(CCCC)C(=O)N2CCCC)n1Cc1ccc(-c2ccccc2C(=O)OC)cc1`, the figure is 29.6 nM.
Compound `CCCCc1ncc(/C=C2/C(=O)N(CCCC)C(=O)N2Cc2ccsc2)n1Cc1ccc(C(=O)OC)cc1` showed an IC50 in experiment [1] of 4.8 nM. For the same compound, the Maximum blood pressure change in experiment [2] was -36%.
In experiment [1], `CCCCc1ncc(/C=C2/C(=O)N(CCCC)C(=O)N2Cc2cccc[n+]2[O-])n1Cc1ccc(C(=O)OC)cc1` registered an IC50 of 260 nM.
The same measure, in the same setting: under `CCCCc1ncc(/C=C2/C(=O)N(C)C(=O)N2Cc2csc(C)n2)n1Cc1ccc(C(=O)OC)cc1` stands 16.6 nM.
The same measure, in the same setting: as for `CCCCc1ncc(/C=C2/C(=O)N(CCCC)C(=O)N2CCc2cccs2)n1Cc1ccc(C(=O)OC)cc1`, the figure is 14.5 nM.
Regarding `CCCCc1ncc(/C=C2/C(=O)N(CCCC)C(=O)N2CCCC(F)(F)F)n1Cc1ccc(C(=O)OC)cc1`, the IC50 in experiment [1] is 6.4 nM.
The same measure, in the same setting: under `CCCCc1ncc(/C=C2\C(=O)NC(=O)N2CCCC)n1Cc1ccc(-c2ccccc2-c2nn[nH]n2)cc1` stands 2.7 nM.
For `CCCCc1ncc(/C=C2/C(=O)NC(=O)N2Cc2ccccc2)n1Cc1ccc(C(=O)O)cc1`, the half-maximal inhibitory concentration (IC50) in experiment [1] is on record as 4 nM; in experiment [3], 35 nM.
Regarding `CCCCc1ncc(/C=C2/C(=O)N(CCCC)C(=O)N2Cc2ccc(OC)cc2)n1Cc1ccc(C(=O)OC)cc1`, the IC50 in experiment [1] is 9.8 nM.
Still for that read-out and setting: under `CCCCc1ncc(/C=C2/C(=O)N(CCCC)C(=O)N2Cc2ccc(C#N)cc2)n1Cc1ccc(C(=O)OC)cc1` stands 11.1 nM; under `CCCCc1ncc(/C=C2\C(=O)NC(=O)N2CCCC)n1Cc1ccc(NS(=O)(=O)C(F)(F)F)cc1`, 4.2 nM; under `CCCCCN1C(=O)N(CCCC)C(=O)/C1=C/c1cnc(CCCC)n1Cc1ccc(C(=O)OC)cc1`, 6.1 nM.
With `CCCCc1ncc(/C=C2/C(=O)N(CCCC(F)(F)F)C(=O)N2Cc2csc(C)n2)n1Cc1ccc(C(=O)OC)cc1`, in experiment [1], the IC50 is reported as 70 nM.
Still for that read-out and setting: under `CCCCc1ncc(/C=C2/C(=O)N(CCCC)C(=O)N2Cc2ccc3ccccc3c2)n1Cc1ccc(C(=O)OC)cc1` stands 104 nM; under `CCCCc1ncc(/C=C2/C(=O)N(CCCC)C(=O)N2Cc2ccc(C(=O)OC)s2)n1Cc1ccc(C(=O)OC)cc1`, 4.2 nM.
On the same count and under the same terms, as for `CCCCc1ncc(/C=C2/C(=O)N(CCCC)C(=O)N2Cc2cccc(C)c2)n1Cc1ccc(C(=O)OC)cc1`, the figure is 18.5 nM; as for `CCCCc1ncc(/C=C2/C(=O)N(CCCC)C(=O)N2Cc2ccc([N+](=O)[O-])cc2)n1Cc1ccc(C(=O)OC)cc1`, 16.9 nM.
On the same count and under the same terms, as for `CCCCc1ncc(/C=C2/C(=O)NC(=O)N2CCCC)n1Cc1ccc(-c2ccccc2C(=O)OC)cc1`, the figure is 15.9 nM; as for `CCCCc1ncc(/C=C2/C(=O)N(CCCC)C(=O)N2Cc2sccc2C)n1Cc1ccc(C(=O)OC)cc1`, 23.9 nM.
